The experiment deals with S. hominis (ATCC 27844). In words: Malodor Assay (H2S production, lead acetate paper blackening). It counts as cell-based. To be noted: S. hominis culture in TSB with 0.1% L-cysteine-HCl, 96 well plate, 37° C. for about 16 hours; blackening of lead acetate paper scored 0 to 10 versus control (completely black); ingredient amounts in ppm as per Table 1. How it is done:
The efficacy of different ingredients and combinations were tried using the Malodor Assay protocol with S. hominis (ATCC 27844) as described below:
The malodour assay was done in a 96 well plate (Nunc™, ThermoFisher). First, a lead acetate paper was prepared as follows. A Whatman™ (No. 1) filter paper (150 mm, Cat No. 1001-150) was taken and cut to match the top cross-sectional dimension of the 96 well plate. 1% Lead acetate (Hi Media, RM 757) solution was prepared in distilled water and the Whatman™ filter paper was soaked in the prepared lead acetate solution. The excess solution from the filter paper was drained and allowed to dry in a Laminar Air Flow for 1 hour. After drying, the filter paper was wrapped in an Aluminium foil and autoclaved at 121° C. for about 20 minutes. This lead acetate paper was used for the assay to capture the malodour generation at the later stage.
A TSB broth solution was prepared by adding 0.1% L-cysteine-HCl (Sigma, C1276) into TSB (Bacto, 211825, 30 g/L) and autoclaved. After that, the 96 well plate was taken followed by addition of 180 μL/well of the above prepared TSB solution into the wells. Then 20 μL/well of S. hominis culture ([…]) was added to the wells. Different ingredient and/or mix of ingredients as per following Table 1 were added into the wells along with a control (only distilled water and bacteria) as per the required concentration (as mentioned in Table 1). Finally, the lead acetate paper that was prepared previously was placed on the wells of the 96-well plate and the lid was closed. This plate was then incubated in an incubator (LABTOP, bacteriological incubator) at 37° C. for about 16 hours. The lid of the plate was opened after the incubation and observed the lead acetate paper for any visual change in colour. […] The results and the effect of actives were compared with the control (completely black).
The results of these experiments are expressed in terms of “% reduction” in H2S production which is determined from the blackening of the spot as explained above. Each spot with different test samples has been compared with the control (completely black) sample. It was then rated on a scale of 0 to 10 (10 being completely black as like control and 0 is no blackening). From the score the percentage reduction was evaluated e.g. if the blackening of any sample is as dark as control then the score given was “8-10” and accordingly % reduction is <20%.

In the case of `C=CCc1ccc(O)c(-c2ccc(O)c(CC=C)c2)c1` [C, honokiol], the “% reduction in H2S production” value is 20-40%.
For `C=CCc1ccc(O)c(-c2cc(CC=C)ccc2O)c1` [D, magnolol] the value was less than 20%; for `O=S(=O)([O-])[O-].[Fe+2]` [G, FeSO4], less than 20%; for `O=S(=O)([O-])[O-].[Cu+2]` [J, CuSO4], less than 20%.
`O=S(=O)([O-])[O-].[Cu+2]` [K, CuSO4]: the “% reduction in H2S production” value is listed as 20-40%.

The values are drawn from patent US20210378926A1, “A TOPICAL COMPOSITION” (priority 2018, published 2021).
